# Measurements from article PMC11202169, “A Novel Fluorescence-Based Microplate Assay for High-Throughput Screening of hSULT1As Inhibitors” (Biosensors, 2024).
# “And” between values parts separate entries of the source, which are not always exact repeats. Equal values may be shown once. Read-outs that look alike come from different tables or passages of the source.
# Legend:
# Type in all cases: biochemical
# [1] = molecular target: T1, hSULT1A1 (Homo sapiens, UniProt P50225); test: Fluorescence-based microplate inhibition assay, hSULT1A1-catalyzed HN-241 4-O-sulfation; settings: for IC50: hSULT1A1-catalyzed HN-241 4-O-sulfation; for activity at 1 µM: read-out: Residue activity (%) hSULT1A1;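 for all read-outs here: reaction started with 200 µM PAPS at 37 °C, fluorescence read continuously (Ex 350 nm, Em 450 nm), activity expressed relative to DMSO-only control without inhibitor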
# T1 construct: 6-histidine tag (N); TEV site (N); made in house; host or cells: Escherichia coli BL21 (DE3), pET29a(+)
# T1 sequence (P50225 whole entry): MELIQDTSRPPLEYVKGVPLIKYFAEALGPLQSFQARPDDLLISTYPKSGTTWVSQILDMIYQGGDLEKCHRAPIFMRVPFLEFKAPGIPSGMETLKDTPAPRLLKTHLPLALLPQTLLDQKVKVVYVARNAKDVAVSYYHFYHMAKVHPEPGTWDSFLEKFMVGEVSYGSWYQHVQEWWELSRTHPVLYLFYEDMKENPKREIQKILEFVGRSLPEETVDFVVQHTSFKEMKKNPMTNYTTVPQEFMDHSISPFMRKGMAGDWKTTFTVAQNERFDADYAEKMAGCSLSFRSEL
# [2] = molecular target: T2, hSULT1A2 (Homo sapiens, UniProt P50226); test: Fluorescence-based microplate inhibition assay, hSULT1A2-catalyzed HN-241 4-O-sulfation; settings: for remaining activity at 10 µM: 0.25 h, read-out: Residue activity (%) hSULT1A2
# T2 construct: 6-histidine tag (N); TEV site (N); made in house; host or cells: Escherichia coli BL21 (DE3), pET29a(+)
# T2 sequence (P50226 whole entry): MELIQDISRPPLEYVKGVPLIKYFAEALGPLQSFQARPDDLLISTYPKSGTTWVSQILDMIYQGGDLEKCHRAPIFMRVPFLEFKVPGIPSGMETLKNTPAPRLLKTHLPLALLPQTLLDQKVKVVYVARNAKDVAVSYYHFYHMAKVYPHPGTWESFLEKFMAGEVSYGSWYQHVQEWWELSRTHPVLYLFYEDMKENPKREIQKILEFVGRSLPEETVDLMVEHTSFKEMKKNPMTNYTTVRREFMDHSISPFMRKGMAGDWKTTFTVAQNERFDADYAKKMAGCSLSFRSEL
# [3] = molecular target: T3, hSULT1A3 (Homo sapiens, UniProt P0DMM9); test: Fluorescence-based microplate inhibition assay, hSULT1A3-catalyzed HN-241 4-O-sulfation; settings: for IC50: hSULT1A3-catalyzed HN-241 4-O-sulfation; for activity at 10 µM: read-out: Residue activity (%) hSULT1A3
# T3 construct: 6-histidine tag (N); TEV site (N); made in house; host or cells: Escherichia coli BL21 (DE3), pET29a(+)
# T3 sequence (P0DMM9 whole entry): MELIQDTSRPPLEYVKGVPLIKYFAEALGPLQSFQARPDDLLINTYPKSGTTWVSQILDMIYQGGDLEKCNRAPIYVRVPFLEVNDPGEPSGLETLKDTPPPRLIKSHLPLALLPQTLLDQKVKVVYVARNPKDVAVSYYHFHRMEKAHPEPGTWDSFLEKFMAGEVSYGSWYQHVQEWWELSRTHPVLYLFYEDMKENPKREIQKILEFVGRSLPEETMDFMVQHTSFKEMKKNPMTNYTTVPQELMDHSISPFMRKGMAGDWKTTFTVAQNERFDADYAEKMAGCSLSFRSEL
# [4] = test compound 1 μM, HN-241 1 μM, 15 min
# [5] = test compound 10 μM, HN-241 5 μM, 15 min
# [6] = test compound 10 μM, HN-241 10 μM, 15 min
Compound,"activity at 1 µM [1, 4]","remaining activity at 10 µM [2, 5]","activity at 10 µM [3, 6]","Residue activity (%) hSULT1A1 [1, 4]","Residue activity (%) hSULT1A2 [2, 5]","Residue activity (%) hSULT1A3 [3, 6]",also measured
CC(C)=CCC[C@@](C)(O)[C@H]1CC[C@]2(C)[C@@H]1[C@H](O)C[C@@H]1[C@@]3(C)CC[C@H](O[C@@H]4O[C@H](CO)[C@@H](O)[C@H](O)[C@H]4O)C(C)(C)[C@@H]3CC[C@]12C [20(R)-Ginsenoside Rh2],–,–,–,98.01%,114.69%,116.23%,–
O=c1cc(-c2ccccc2)oc2cc(O)c(O)c(O)c12 [Baicalein],–,–,–,–,–,–,IC50 [1]: 45.2 ± 3.91 nM; IC50 [3]: 6320 ± 195 nM
COc1cc2c(c(OC)c1OC)C(=O)c1c(cc(C)c(O)c1OC)C2=O [Chrysoobtusin],1.84%,0.09%,5.28%,–,–,–,IC50 [3]: 1520 ± 79.1 nM
COC[C@]12CN(C)[C@@H]3[C@@H]4[C@H](OC)[C@H]1[C@@]3([C@@H](OC)C[C@H]2O)[C@@H]1C[C@@]2(O)[C@H](OC(=O)c3ccccc3)[C@@H]1[C@]4(OC(C)=O)[C@@H](O)[C@@H]2OC [Mesaconitine],–,–,–,–,114.51%,110.31%,–
Myricitrin,–,–,–,96.68%,84.45%,110.49%,–
"O=c1c(O)c(-c2ccc(O)c(O)c2)oc2cc(O)cc(O)c12 [Quercetin, reference compound]",0%,0.1%,39.9%,–,–,–,–
C[C@]12CC[C@H](O)C[C@H]1CC[C@@H]1[C@@H]2CC[C@]2(C)[C@@H](c3ccc(=O)oc3)CC[C@]12O [Bufalin],–,–,–,–,–,–,activity at 1 µM [1]: 103%; remaining activity at 10 µM [2]: 106%; activity at 10 µM [3]: 124%
COC(=O)/C=C/c1ccc(O)c(O)c1 [Methyl caffeate acid],–,–,–,9.01%,12.99%,44.99%,–
CC(C)=CCC[C@](C)(O)[C@H]1CC[C@]2(C)[C@@H]1[C@H](O)C[C@@H]1[C@@]3(C)CC[C@H](O)C(C)(C)[C@@H]3CC[C@]12C [(20S)-Protopanaxdiol],–,–,–,99.75%,95.73%,81.62%,–
CC(C)=CCC[C@](C)(O)[C@H]1CC[C@]2(C)[C@@H]1[C@H](O)C[C@@H]1[C@@]3(C)CC[C@H](O)C(C)(C)[C@@H]3[C@@H](O[C@@H]3O[C@H](CO)[C@@H](O)[C@H](O)[C@H]3O[C@@H]3OC[C@@H](O)[C@H](O)[C@H]3O)C[C@]12C [Notoginsenoside R2],–,–,–,105.59%,108.58%,–,–
O=c1cc(-c2ccc(O)cc2)oc2c([C@@H]3O[C@H](CO)[C@@H](O)[C@H](O)[C@H]3O)c(O)cc(O)c12 [Vitexin],102%,115%,108%,–,–,–,–
COc1ccc(-c2cc(=O)c3c(O)cc(O)cc3o2)cc1 [Acacetin],0.38%,0.47%,58.1%,–,–,–,–
CC(C)=CCC[C@@](C)(O)[C@H]1CC[C@]2(C)[C@@H]1[C@H](O)C[C@@H]1[C@@]3(C)CC[C@H](O)C(C)(C)[C@@H]3CC[C@]12C [(20R)-Protopanaxdiol],–,–,–,99.25% and 99.62%,97.81% and 101.25%,110.20% and 105.48%,–
COc1cc(O)cc(O)c1C(=O)/C=C/c1ccccc1 [Cardamonin],–,–,–,63.24% and 71.38%,34.41% and 31.76%,120.65% and 88.76%,–
COc1ccc(/C=C/C(=O)c2ccccc2)cc1 [4-Methoxychalcone],–,–,–,78.44%,75.95%,–,–

# Second part, led by results:
"activity at 1 µM [1, 4]","remaining activity at 10 µM [2, 5]","activity at 10 µM [3, 6]",Compound,"Residue activity (%) hSULT1A1 [1, 4]","Residue activity (%) hSULT1A2 [2, 5]","Residue activity (%) hSULT1A3 [3, 6]",also measured
102%,113%,108%,C/C1=C\CC(C)(C)/C=C/C(=O)/C(C)=C/CC1 [Zerumbone],–,–,–,–
92.5%,106%,92.1%,CC(C)=CCOc1c2ccoc2cc2oc(=O)ccc12 [Isoimperatorin],–,–,–,–
96.5%,98.2%,129%,C[C@H](CCC(=O)O)[C@H]1CC[C@H]2[C@@H]3[C@H](O)C[C@@H]4C[C@H](O)CC[C@]4(C)[C@H]3CC[C@]12C [Chenodeoxycholic acid],–,–,–,–
0%,0.21%,30.9%,COc1c(/C=C/C(=O)c2ccc(O)c(CC=C(C)C)c2)ccc(O)c1O [Licochalcone D],–,–,–,IC50 [1]: 5.37 ± 0.18 nM
109%,109%,108%,C/C=C(/C)C(=O)O[C@H]1c2cc(OC)c(OC)c(OC)c2-c2c(cc3c(c2OC)OCO3)C[C@H](C)[C@]1(C)O [Schisantherin B],–,–,–,–
